Data on eleven compounds can be found in ChEMBL document CHEMBL1201862, “PubChem BioAssay data set” (2004).

Among the test systems are OVCAR-3; K562; NCI/ADR-RES; SF-539; EKVX; DU-145; TK-10; UACC-62; NCI-H460; Hs-578T; MDA-MB-435; COLO 205; 786-0; T47D; SNB-75; RPMI-8226; CCRF-CEM; CAKI-1; UO-31; MDA-N.
Common to all, as to test: NCI anticancer screen, dose series, 48 h

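In this assay, cells in 96-well plates receive the compound at five concentrations for 48 hours. Endpoints are linearly interpolated between the surrounding concentrations. GI50 = concentration required for 50% inhibition of growth.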 Activity calls are given as the source filed them. Rule as the data show it: active = GI50 up to about 1.1 µM and inactive = higher.

`S=c1nc(N2CCCCC2)c2cn[nH]c2[nH]1`: the GI50 was 54.8 µM (inactive) in the assay on OVCAR-3; 29.9 µM (inactive) with K562; > 100 µM (inactive) in the assay with NCI/ADR-RES; 52.6 µM (inactive) in the assay with SF-539; > 100 µM (inactive) with EKVX; 59.7 µM (inactive) with DU-145. Besides, the GI50 with TK-10 was 39.2 µM (inactive); in the assay on UACC-62 it was 50.1 µM (inactive); in the assay on NCI-H460, 42.3 µM (inactive); with Hs-578T it was 57.4 µM (inactive); with MDA-MB-435 it was 46.1 µM (inactive); in the assay with COLO 205 it was 28.8 µM (inactive). For the same compound, the GI50 in the assay with 786-0 was 88.5 µM (inactive); in the assay with T47D, 59.6 µM (inactive); with SNB-75, > 100 µM (inactive); with RPMI-8226, 12.2 µM (inactive); in the assay with CCRF-CEM, 10.4 µM (inactive); in the assay with CAKI-1, 27.7 µM (inactive). The GI50 in the assay on UO-31 is 23.9 µM (inactive).

For the compound `O=C(/C=C/c1ccc(C(F)(F)F)cc1)c1c([O-])on[n+]1-c1ccccc1`, the GI50 with OVCAR-3 is 1.58 µM (inactive); in the assay with K562, 0.395 µM (active); in the assay on NCI/ADR-RES, 1.78 µM (inactive); in the assay with SF-539, 2.03 µM (inactive); in the assay on EKVX it was 2.24 µM (inactive); in the assay on DU-145, 2.21 µM (inactive). For the same compound, the GI50 is 1.65 µM (inactive) in the assay with TK-10; 1.47 µM (inactive) in the assay with UACC-62; 2.29 µM (inactive) in the assay on NCI-H460; 1.86 µM (inactive) in the assay with MDA-MB-435; 1.75 µM (inactive) in the assay on COLO 205; 0.531 µM (active) in the assay on 786-0. The GI50 in the assay on T47D is 1.8 µM (inactive); in the assay on SNB-75 it was 2.07 µM (inactive); in the assay with RPMI-8226, 0.261 µM (active); with CCRF-CEM, 0.108 µM (active); with MDA-N it was 1.84 µM (inactive); in the assay with CAKI-1, 0.288 µM (active). For the same compound, the GI50 with UO-31 was 1.91 µM (inactive).

With `O=C1CC(c2ccccc2)Oc2ccccc21` (stereo unspecified) [FLAVANONE], the GI50 in the assay on K562 was 12.6 µM (inactive); in the assay with NCI/ADR-RES, 34.9 µM (inactive); in the assay on SF-539, 21.8 µM (inactive); in the assay on EKVX it was 38.9 µM (inactive); in the assay with DU-145, 67.6 µM (inactive); with TK-10, 76.4 µM (inactive). Besides, the GI50 in the assay with UACC-62 was 51.3 µM (inactive); with NCI-H460, 32.1 µM (inactive); in the assay on Hs-578T, 67.3 µM (inactive); in the assay on MDA-MB-435, 31.9 µM (inactive); in the assay with COLO 205 it was 33.6 µM (inactive); in the assay with 786-0, 29.3 µM (inactive). In addition, the GI50 in the assay on T47D is 35.8 µM (inactive); in the assay with SNB-75, 63.4 µM (inactive); in the assay with RPMI-8226, 17.1 µM (inactive); in the assay on CCRF-CEM, 24.2 µM (inactive); in the assay with CAKI-1, 48.3 µM (inactive); in the assay with UO-31, 47.6 µM (inactive).

For the compound `COc1ccc2c(c1)C(=O)OCCC2`, the GI50 in the assay on OVCAR-3, in the assay on K562, with NCI/ADR-RES, in the assay with SF-539, in the assay with EKVX and with DU-145 was > 100 µM (inactive) each time. Besides, the GI50 with TK-10, in the assay on UACC-62, with NCI-H460, in the assay with Hs-578T, with MDA-MB-435 and in the assay on COLO 205 was > 100 µM (inactive) in each case. The GI50 was > 100 µM (inactive) in the assay on 786-0; > 100 µM (inactive) in the assay on T47D; 54 µM (inactive) in the assay with SNB-75; > 100 µM (inactive) in the assay on RPMI-8226; > 100 µM (inactive) in the assay with CCRF-CEM; > 100 µM (inactive) in the assay with CAKI-1. Besides, the GI50 with UO-31 is 26.7 µM (inactive).

For `COc1c(F)c(F)c(C(=O)/C=C2\Nc3ccccc3NC2=O)c(F)c1F`, the GI50 in the assay with K562, in the assay with EKVX, in the assay with DU-145, in the assay on TK-10, in the assay with UACC-62 and with MDA-MB-435 was > 10 µM (inactive) each time. For the same compound, the GI50 in the assay with COLO 205 is > 10 µM (inactive); in the assay on 786-0 it was 2.32 µM (inactive); in the assay on T47D, 4.67 µM (inactive); in the assay on SNB-75 it was 2.25 µM (inactive); in the assay on RPMI-8226 it was > 10 µM (inactive); in the assay with CCRF-CEM, > 10 µM (inactive). The GI50 with MDA-N and in the assay with CAKI-1 was > 10 µM (inactive) throughout.

Regarding `N=c1oc2cc(O)ccc2cc1C(=O)Nc1cccc2ccccc12`, the GI50 was 7.13 µM (inactive) in the assay on OVCAR-3; 3.33 µM (inactive) in the assay with K562; 1.82 µM (inactive) in the assay on NCI/ADR-RES; 4.32 µM (inactive) in the assay on EKVX; 6.53 µM (inactive) in the assay with DU-145; 2.69 µM (inactive) in the assay on TK-10. The GI50 is 3.23 µM (inactive) in the assay with UACC-62; 4.02 µM (inactive) with NCI-H460; 2.94 µM (inactive) in the assay with Hs-578T; 1.97 µM (inactive) with MDA-MB-435; 15.2 µM (inactive) with COLO 205; 3.45 µM (inactive) with 786-0. The GI50 with T47D was 3.5 µM (inactive); with SNB-75, 3.54 µM (inactive); in the assay on RPMI-8226, 4.45 µM (inactive); in the assay on CCRF-CEM, 2.35 µM (inactive); in the assay with CAKI-1, 5.97 µM (inactive); in the assay on UO-31 it was 4.7 µM (inactive).

Turning to `NC1=Nc2ccccc2Sc2nncn21`, the GI50 in the assay on OVCAR-3, with K562, in the assay with NCI/ADR-RES, in the assay with SF-539, in the assay with EKVX and with DU-145 was > 100 µM (inactive) each time. In addition, the GI50 in the assay with TK-10, in the assay on UACC-62, in the assay on NCI-H460, in the assay with Hs-578T, with MDA-MB-435 and in the assay with COLO 205 was > 100 µM (inactive) throughout. Moreover, the GI50 in the assay with 786-0, in the assay with T47D, in the assay with SNB-75, in the assay with RPMI-8226, in the assay with CCRF-CEM and with CAKI-1 was > 100 µM (inactive) each time. Also, the GI50 with UO-31 was > 100 µM (inactive).

Regarding `OC(c1ccc(F)cc1)C(F)(F)c1nc2ccccc2o1` (stereo unspecified), the GI50 with K562 is 30.8 µM (inactive); in the assay with NCI/ADR-RES it was 51.4 µM (inactive); in the assay on SF-539, > 100 µM (inactive); in the assay with EKVX it was > 100 µM (inactive); in the assay with DU-145, 47 µM (inactive); with TK-10, > 100 µM (inactive). The GI50 in the assay on UACC-62 was > 100 µM (inactive); in the assay on NCI-H460, > 100 µM (inactive); with MDA-MB-435, > 100 µM (inactive); with COLO 205, > 100 µM (inactive); in the assay on 786-0 it was > 100 µM (inactive); in the assay on T47D, 76 µM (inactive). Also, the GI50 is 21.6 µM (inactive) in the assay on SNB-75; 90.6 µM (inactive) in the assay with RPMI-8226; > 100 µM (inactive) in the assay on CCRF-CEM; 87.5 µM (inactive) in the assay with CAKI-1; > 100 µM (inactive) with UO-31.

For `CCOC(=O)Nn1cnnc1C`, the GI50 with OVCAR-3, in the assay on K562, in the assay with NCI/ADR-RES, in the assay with SF-539, in the assay with EKVX and in the assay on TK-10 was > 100 µM (inactive) in each case. In addition, the GI50 in the assay with UACC-62, in the assay with NCI-H460, in the assay on MDA-MB-435, in the assay on COLO 205, in the assay on 786-0 and in the assay on T47D was > 100 µM (inactive) in each case. The GI50 with RPMI-8226, in the assay on CCRF-CEM, with MDA-N, in the assay with CAKI-1 and in the assay on UO-31 was > 100 µM (inactive) in each case.

Turning to `O=C1C(=C/C=C2/SC(c3ccccc3)(c3ccccc3)c3ccccc32)C(=O)c2ccccc21`, the GI50 with OVCAR-3, with K562, in the assay with NCI/ADR-RES, in the assay on SF-539, in the assay on EKVX and in the assay on DU-145 was > 100 µM (inactive) each time. Besides, the GI50 in the assay on TK-10, in the assay with UACC-62, with NCI-H460, in the assay with Hs-578T, with MDA-MB-435 and in the assay with COLO 205 was > 100 µM (inactive) each time. Moreover, the GI50 in the assay on 786-0, with SNB-75, with RPMI-8226, in the assay with MDA-N, with CAKI-1 and in the assay on UO-31 was > 100 µM (inactive) in each case.

As for `C[C@]12CC(c3ccccc3O1)C(C(=O)NC13CC4CC(CC(C4)C1)C3)C(=O)N2` (stereo partly specified), the GI50 in the assay on OVCAR-3 was 44.9 µM (inactive); in the assay with K562, 14 µM (inactive); in the assay with NCI/ADR-RES, 20.3 µM (inactive); with EKVX, 0.249 µM (active); in the assay with DU-145, 38.4 µM (inactive); with TK-10, 70.1 µM (inactive). In addition, the GI50 with UACC-62 is 46.8 µM (inactive); in the assay on NCI-H460 it was 35.4 µM (inactive); in the assay on Hs-578T, 55.7 µM (inactive); with MDA-MB-435, 26.2 µM (inactive); in the assay on COLO 205 it was 15.6 µM (inactive); in the assay with 786-0, 18.3 µM (inactive). The GI50 in the assay with SNB-75 was 27.5 µM (inactive); in the assay with RPMI-8226 it was 16 µM (inactive); in the assay on CCRF-CEM it was 20 µM (inactive); in the assay with MDA-N it was 18.1 µM (inactive); in the assay on CAKI-1, 38.6 µM (inactive); in the assay with UO-31 it was 20 µM (inactive).
